{"source": "patent US8639486B2", "about": "“Method for identifying inhibitors of Staphylococcus aureus” (Indian Institute of Science, priority 2010, dated 2014)", "note": "Residues, ends and D or L forms follow the SMILES beside them.", "data": [{"molecular_target": "S. aureus N-Succinyl-L,L-DAP Desuccinylase (DapE), SEQ ID NO: 2 (Staphylococcus aureus, UniProt Q5HF23)", "sequence (Q5HF23 whole entry)": "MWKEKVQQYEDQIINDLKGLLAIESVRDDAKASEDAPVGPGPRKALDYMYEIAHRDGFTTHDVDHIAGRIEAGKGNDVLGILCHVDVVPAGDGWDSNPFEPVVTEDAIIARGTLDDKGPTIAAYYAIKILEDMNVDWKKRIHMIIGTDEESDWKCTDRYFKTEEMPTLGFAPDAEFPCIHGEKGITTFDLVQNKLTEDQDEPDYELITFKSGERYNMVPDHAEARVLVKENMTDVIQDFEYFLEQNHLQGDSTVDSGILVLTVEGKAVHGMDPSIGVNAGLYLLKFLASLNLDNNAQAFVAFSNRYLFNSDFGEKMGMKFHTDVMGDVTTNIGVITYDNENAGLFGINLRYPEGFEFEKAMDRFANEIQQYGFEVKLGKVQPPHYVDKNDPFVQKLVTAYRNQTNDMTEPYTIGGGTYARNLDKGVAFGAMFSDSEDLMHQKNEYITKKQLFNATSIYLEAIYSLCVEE", "test": "qualitative dipeptidase activity (TLC assay)", "type": "biochemical, Staphylococcus aureus COL", "design": "key: +: Mild hydrolytic activity; ++: Moderate hydrolytic activity; +++: High hydrolytic activity", "settings": "5.0 mg/mL dipeptide, 2 μg DapE, 50 mM Tris-HCl pH 7.5, 37° C., 30 min", "values": [{"compound": "C[C@H](N)C(=O)N[C@@H](CO)C(=O)O", "note": "[Ala-Ser] (H-Ala-Ser-OH)", "Activity (qualitative dipeptidase / hydrolytic activity)": "+"}, {"compound": "C[C@H](NC(=O)[C@@H](N)CCCN=C(N)N)C(=O)O", "note": "[Arg-Ala] (H-Arg-Ala-OH)", "Activity (qualitative dipeptidase / hydrolytic activity)": "+++"}, {"compound": "CC[C@H](C)[C@H](NC(=O)[C@@H](N)CCCN=C(N)N)C(=O)O", "note": "[Arg-Ile] (H-Arg-Ile-OH)", "Activity (qualitative dipeptidase / hydrolytic activity)": "+++"}, {"compound": "CC(C)C[C@H](NC(=O)[C@@H](N)CCCN=C(N)N)C(=O)O", "note": "[Arg-Leu] (H-Arg-Leu-OH)", "Activity (qualitative dipeptidase / hydrolytic activity)": "+++"}, {"compound": "CC(C)[C@H](NC(=O)[C@@H](N)CCCN=C(N)N)C(=O)O", "note": "[Arg-Val] (H-Arg-Val-OH)", "Activity (qualitative dipeptidase / hydrolytic activity)": "+++"}, {"compound": "NCCCC[C@H](NC(=O)[C@@H](N)CC(=O)O)C(=O)O", "note": "[Asp-Lys] (H-Asp-Lys-OH)", "Activity (qualitative dipeptidase / hydrolytic activity)": "+"}, {"compound": "NCCCC[C@H](NC(=O)CN)C(=O)O", "note": "[Gly-Lys] (H-Gly-Lys-OH)", "Activity (qualitative dipeptidase / hydrolytic activity)": "+"}, {"compound": "NCC(=O)N[C@@H](CO)C(=O)O", "note": "[Gly-Ser] (H-Gly-Ser-OH)", "Activity (qualitative dipeptidase / hydrolytic activity)": "+"}, {"compound": "CC(C)C[C@H](NC(=O)[C@@H](N)Cc1cnc[nH]1)C(=O)O", "note": "[His-Leu] (H-His-Leu-OH)", "Activity (qualitative dipeptidase / hydrolytic activity)": "+"}, {"compound": "CC(C)C[C@H](NC(=O)[C@@H](N)CCCCN)C(=O)O", "note": "[Lys-Leu] (H-Lys-Leu-OH)", "Activity (qualitative dipeptidase / hydrolytic activity)": "++"}, {"compound": "NCCCC[C@H](N)C(=O)N[C@@H](Cc1ccccc1)C(=O)O", "note": "[Lys-Phe]", "Activity (qualitative dipeptidase / hydrolytic activity)": "++"}, {"compound": "CC(C)[C@H](NC(=O)[C@@H](N)Cc1ccccc1)C(=O)O", "note": "[Phe-Val] (H-Phe-Val-OH)", "Activity (qualitative dipeptidase / hydrolytic activity)": "+++"}, {"compound": "N[C@@H](CO)C(=O)N[C@@H](Cc1cnc[nH]1)C(=O)O", "note": "[Ser-His] (H-Ser-His-OH)", "Activity (qualitative dipeptidase / hydrolytic activity)": "++"}]}, {"system": "botanical DapA (N. sylvestris)", "test": "not given", "settings": "highly sensitive, read-out: IC50 of feedback inhibition by L-lysine; cited from earlier work", "units": {"IC50": "mM"}, "values": [{"compound": "NCCCC[C@H](N)C(=O)O", "note": "[L-lysine]", "IC50": "0.015 to 0.02"}]}, {"molecular_target": "DapA from gram negative bacteria (E. coli) (Escherichia coli, UniProt P0A6L2)", "sequence (P0A6L2 whole entry)": "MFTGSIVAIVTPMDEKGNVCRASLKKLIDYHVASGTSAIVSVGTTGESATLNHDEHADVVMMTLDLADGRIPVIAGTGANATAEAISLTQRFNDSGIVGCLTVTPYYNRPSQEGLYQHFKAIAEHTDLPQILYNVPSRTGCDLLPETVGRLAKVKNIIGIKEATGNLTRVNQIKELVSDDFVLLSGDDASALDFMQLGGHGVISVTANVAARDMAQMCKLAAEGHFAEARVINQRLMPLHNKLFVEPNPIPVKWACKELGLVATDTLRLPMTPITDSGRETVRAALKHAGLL", "test": "not given", "settings": "less sensitive, read-out: IC50 of feedback inhibition by L-lysine; cited from earlier work", "units": {"IC50": "mM"}, "values": [{"compound": "NCCCC[C@H](N)C(=O)O", "note": "[L-lysine]", "IC50": 100}]}, {"system": "CC(C)[C@H](NC(=O)[C@@H](N)Cc1ccccc1)C(=O)O", "test": "purified protein, by the assay type", "settings": "other: holo-DapE + Mn^2+ + TCEP, Phe-Val, pH 7.5, 37° C.", "units": {"Km": "µM"}, "values": [{"compound": "S. aureus N-Succinyl-L,L-DAP Desuccinylase (DapE), holo form, SEQ ID NO: 2 (Staphylococcus aureus subsp. aureus COL)", "Km": "1100 ± 100"}]}, {"system": "CC(C)[C@H](NC(=O)[C@@H](N)Cc1ccccc1)C(=O)O", "test": "purified protein, by the assay type", "settings": "other: holo-DapE + Mn^2+, Phe-Val, pH 7.5, 37° C.", "units": {"Km": "µM"}, "values": [{"compound": "S. aureus N-Succinyl-L,L-DAP Desuccinylase (DapE), holo form, SEQ ID NO: 2 (Staphylococcus aureus subsp. aureus COL)", "Km": "1150 ± 120"}]}, {"system": "CC(C)[C@H](NC(=O)[C@@H](N)Cc1ccccc1)C(=O)O", "test": "purified protein, by the assay type", "settings": "other: holo-DapE, Phe-Val, pH 7.5, 37° C.", "units": {"Km": "µM"}, "values": [{"compound": "S. aureus N-Succinyl-L,L-DAP Desuccinylase (DapE), holo form, SEQ ID NO: 2 (Staphylococcus aureus subsp. aureus COL)", "Km": "670 ± 100"}]}]}
